Test results: PubChem BioAssay (NCI)
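96-well plates; 48 h exposure; 5 concentrations. Endpoints by linear interpolation between flanking doses. Not reached: highest tested concentration assigned. TGI marks complete inhibition of growth.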

Key:
Test in all cases: NCI tumour cell line growth inhibition, 48 h
786-0 renal = tested on: 786-0 renal
A498 renal = tested on: A498 renal
A549 NSCLC = tested on: A549 NSCLC
ACHN renal = tested on: ACHN renal
BT-549 breast = tested on: BT-549 breast
CAKI-1 renal = tested on: CAKI-1 renal
CCRF-CEM leukemia = tested on: CCRF-CEM leukemia
COLO 205 colon = tested on: COLO 205 colon
DU-145 prostate = tested on: DU-145 prostate
EKVX NSCLC = tested on: EKVX NSCLC
HCC-2998 colon = tested on: HCC-2998 colon
HCT-116 colon = tested on: HCT-116 colon
HCT-15 colon = tested on: HCT-15 colon
HL-60(TB) leukemia = tested on: HL-60(TB) leukemia
HOP-62 NSCLC = tested on: HOP-62 NSCLC
HOP-92 NSCLC = tested on: HOP-92 NSCLC
HS 578T breast = tested on: HS 578T breast
HT29 colon = tested on: HT29 colon
IGROV1 ovarian = tested on: IGROV1 ovarian
K-562 leukemia = tested on: K-562 leukemia
KM12 colon = tested on: KM12 colon
LOX IMVI melanoma = tested on: LOX IMVI melanoma
M14 melanoma = tested on: M14 melanoma
MALME-3M melanoma = tested on: MALME-3M melanoma
MCF7 breast = tested on: MCF7 breast
MDA-MB-231 breast = tested on: MDA-MB-231 breast
MDA-MB-435 = tested on: MDA-MB-435
MDA-N = tested on: MDA-N
MOLT-4 leukemia = tested on: MOLT-4 leukemia
NCI-H226 lung = tested on: NCI-H226 lung
NCI-H23 lung = tested on: NCI-H23 lung
NCI-H460 lung = tested on: NCI-H460 lung
NCI-H522 lung = tested on: NCI-H522 lung
NCI/ADR-RES ovarian = tested on: NCI/ADR-RES ovarian
OVCAR-3 ovarian = tested on: OVCAR-3 ovarian
OVCAR-4 ovarian = tested on: OVCAR-4 ovarian
OVCAR-5 ovarian = tested on: OVCAR-5 ovarian
OVCAR-8 ovarian = tested on: OVCAR-8 ovarian
PC-3 prostate = tested on: PC-3 prostate
RPMI-8226 leukemia = tested on: RPMI-8226 leukemia
RXF 393 renal = tested on: RXF 393 renal
SF-268 CNS = tested on: SF-268 CNS
SF-295 CNS = tested on: SF-295 CNS
SF-539 CNS = tested on: SF-539 CNS
SK-MEL-2 melanoma = tested on: SK-MEL-2 melanoma
SK-MEL-28 melanoma = tested on: SK-MEL-28 melanoma
SK-MEL-5 melanoma = tested on: SK-MEL-5 melanoma
SK-OV-3 ovarian = tested on: SK-OV-3 ovarian
SN12C renal = tested on: SN12C renal
SNB-19 CNS = tested on: SNB-19 CNS
SR leukemia = tested on: SR leukemia
SW-620 colon = tested on: SW-620 colon
T-47D breast = tested on: T-47D breast
TK-10 renal = tested on: TK-10 renal
U251 CNS = tested on: U251 CNS
UACC-257 melanoma = tested on: UACC-257 melanoma
UACC-62 melanoma = tested on: UACC-62 melanoma
UO-31 renal = tested on: UO-31 renal
SNB-75 CNS = tested on: SNB-75 CNS

N#CC1(O)CCCCCCCCCCC1
TGI (786-0 renal): > 100 µM
TGI (A498 renal): > 100 µM
TGI (A549 NSCLC): > 100 µM
TGI (ACHN renal): > 100 µM
TGI (BT-549 breast): > 100 µM
TGI (CAKI-1 renal): > 100 µM
TGI (CCRF-CEM leukemia): > 100 µM
TGI (COLO 205 colon): > 100 µM
TGI (DU-145 prostate): > 100 µM
TGI (EKVX NSCLC): > 100 µM
TGI (HCC-2998 colon): > 100 µM
TGI (HCT-116 colon): > 100 µM
TGI (HCT-15 colon): > 100 µM
TGI (HL-60(TB) leukemia): > 100 µM
TGI (HOP-62 NSCLC): > 100 µM
TGI (HOP-92 NSCLC): > 100 µM
TGI (HS 578T breast): > 100 µM
TGI (HT29 colon): > 100 µM
TGI (IGROV1 ovarian): > 100 µM
TGI (K-562 leukemia): > 100 µM
TGI (KM12 colon): > 100 µM
TGI (LOX IMVI melanoma): > 100 µM
TGI (M14 melanoma): > 100 µM
TGI (MALME-3M melanoma): > 100 µM
TGI (MCF7 breast): > 100 µM
TGI (MDA-MB-231 breast): > 100 µM
TGI (MDA-MB-435): > 100 µM
TGI (MDA-N): > 100 µM
TGI (MOLT-4 leukemia): > 100 µM
TGI (NCI-H226 lung): > 100 µM
TGI (NCI-H23 lung): > 100 µM
TGI (NCI-H460 lung): > 100 µM
TGI (NCI-H522 lung): > 100 µM
TGI (NCI/ADR-RES ovarian): > 100 µM
TGI (OVCAR-3 ovarian): > 100 µM
TGI (OVCAR-4 ovarian): > 100 µM
TGI (OVCAR-5 ovarian): > 100 µM
TGI (OVCAR-8 ovarian): > 100 µM
TGI (PC-3 prostate): > 100 µM
TGI (RPMI-8226 leukemia): > 100 µM
TGI (RXF 393 renal): > 100 µM
TGI (SF-268 CNS): > 100 µM
TGI (SF-295 CNS): > 100 µM
TGI (SF-539 CNS): > 100 µM
TGI (SK-MEL-2 melanoma): > 100 µM
TGI (SK-MEL-28 melanoma): > 100 µM
TGI (SK-MEL-5 melanoma): > 100 µM
TGI (SK-OV-3 ovarian): > 100 µM
TGI (SN12C renal): > 100 µM
TGI (SNB-19 CNS): > 100 µM
TGI (SR leukemia): > 100 µM
TGI (SW-620 colon): > 100 µM
TGI (T-47D breast): > 100 µM
TGI (TK-10 renal): > 100 µM
TGI (U251 CNS): > 100 µM
TGI (UACC-257 melanoma): > 100 µM
TGI (UACC-62 melanoma): > 100 µM
TGI (UO-31 renal): > 100 µM

CC(C)C(CC(=O)OCC(CO)OC(=O)CC(C(C)C)C(C)C)C(C)C (configuration not stated)
TGI (786-0 renal): 27.9 µM
TGI (A498 renal): 29.8 µM
TGI (A549 NSCLC): 24 µM
TGI (ACHN renal): 24.3 µM
TGI (BT-549 breast): 33.1 µM
TGI (CAKI-1 renal): 25.4 µM
TGI (CCRF-CEM leukemia): 31.7 µM
TGI (COLO 205 colon): 20 µM
TGI (DU-145 prostate): 28.7 µM
TGI (EKVX NSCLC): 27 µM
TGI (HCC-2998 colon): 30.9 µM
TGI (HCT-116 colon): 33.4 µM
TGI (HCT-15 colon): 30.7 µM
TGI (HOP-62 NSCLC): 23 µM
TGI (HOP-92 NSCLC): 16.9 µM
TGI (HS 578T breast): 21.5 µM
TGI (HT29 colon): 32.1 µM
TGI (IGROV1 ovarian): 33.2 µM
TGI (K-562 leukemia): 33 µM
TGI (KM12 colon): 32 µM
TGI (M14 melanoma): 29.5 µM
TGI (MALME-3M melanoma): 28.4 µM
TGI (MCF7 breast): 33.5 µM
TGI (MDA-MB-231 breast): 33.9 µM
TGI (MDA-MB-435): 28.1 µM
TGI (MDA-N): 30.1 µM
TGI (MOLT-4 leukemia): 31.5 µM
TGI (NCI-H226 lung): 30.1 µM
TGI (NCI-H23 lung): 30.4 µM
TGI (NCI-H460 lung): 26.8 µM
TGI (NCI-H522 lung): 25.6 µM
TGI (NCI/ADR-RES ovarian): 27.3 µM
TGI (OVCAR-3 ovarian): 27.2 µM
TGI (OVCAR-4 ovarian): 33.4 µM
TGI (OVCAR-5 ovarian): 26.1 µM
TGI (PC-3 prostate): 30.3 µM
TGI (RXF 393 renal): 30.8 µM
TGI (SF-268 CNS): 27.6 µM
TGI (SF-295 CNS): 21.1 µM
TGI (SK-MEL-2 melanoma): 35.2 µM
TGI (SK-MEL-28 melanoma): 30.3 µM
TGI (SK-MEL-5 melanoma): 24.7 µM
TGI (SK-OV-3 ovarian): 30.9 µM
TGI (SN12C renal): 28.3 µM
TGI (SNB-19 CNS): 28.4 µM
TGI (SNB-75 CNS): 21.8 µM
TGI (SR leukemia): > 100 µM
TGI (SW-620 colon): 26.8 µM
TGI (T-47D breast): 31.7 µM
TGI (TK-10 renal): 26.3 µM
TGI (U251 CNS): 30.9 µM
TGI (UACC-257 melanoma): 31.2 µM
TGI (UACC-62 melanoma): 32.8 µM
TGI (UO-31 renal): 30.1 µM
